Article PMC12518639, “Apomorphine is a novel necroptosis inhibitor targeting mixed lineage kinase domain-like protein oligomerization” (Cell Death Discovery, 2025)

Columns and labels:
[1] = Auto-oxidation of APO in solution by real-time 1D 1H NMR; assay type: physicochemical; details: freshly dissolved in DPBS, 25 °C, 36 h
Procedure: Fig. 2 Effect of redox-sensitive APO on MLKL oligomerization. A Chemical structure of APO. APO undergoes auto-oxidation to form the oxidized form (Ox-APO), while the addition of DTT preserves the reduced form (Re-APO). The red highlights indicate the sites where APO loses hydrogen and electrons during the oxidation process. B Real-time 1D ^1H NMR spectra showing the degree of oxidation of APO. APO was dissolved from its powdered form in DPBS and incubated at 25 °C for 36 h. Real-time 1D ^1H NMR spectra were measured at a 2 h intervals after filtration through a 0.2 μm syringe filter to remove precipitates. […] C MLKL oligomerization is inhibited by APO. THP-1 cells were treated with TBZ and Re-APO or Ox-APO for 8 h. Western blot analysis of WCLs was performed under non-reducing and reducing conditions using the indicated antibodies. Percentage changes of p-MLKL oligomer band relative to GAPDH were shown. The p value for MLKL oligomer band intensity was calculated based on the average intensity of the tetramer and octamer bands. Octa octamer, Tetra tetramer, Mono monomer. Mean ± SEM (n = 3). **p < 0.001, ns not significant, one-way ANOVA. D THP-1 cells were treated with TBZ and Ox-APO or Re-APO for 8 h and then stained with DAPI and MLKL for confocal microscopy. […] The signal intensity of MLKL fluorescence from the plasma membrane to the cytosol was measured using FluoView FV1000 software. […]

THP-1-HMGB1-Lucia cells = test: TBZ-induced necroptosis screening by HMGB1-luciferase release; assay type: cell-based, human; details: Homo sapiens; 20 μM compound with TBZ, 8 h; TBZ alone = 100, DPBS = 0; read-out: % Inhibition (luciferase activity relative to TBZ-treated supernatant)
Procedure: To identify potential inhibitors of the necroptosis pathway targeting MLKL or the process of p-MLKL pore formation on the membrane, we screened a library of 2150 compounds, including FDA-approved drugs and those in phase 1–3 clinical trials, using THP-1-HMGB1-Lucia™ cells expressing the HMGB1-luciferase fusion protein. The cells were treated with a necroptosis-inducing mixture containing TNF-α, BV6, and Z-VAD-FMK (TBZ) in addition to the compound library (Fig. 1A). The supernatants were harvested to measure luciferase activities for necroptosis. The luciferase activities of cell supernatants treated with TBZ alone were considered as the maximum release (100%) of HMGB1-luciferase. NEC-1, a known RIP1 inhibitor used in both humans and mice, was used as a positive control. […] Next, we performed a propidium iodide (PI) uptake assay to exclude cytotoxic compounds using THP-1 cells. Then, we selected candidate molecules that were arbitrarily less than 30% of those treated with TBZ. […] Next, the inhibition levels of p-MLKL were tested to select MLKL-targeting molecules (Figs. 1C and S1A). Compounds that reduced p-MLKL levels to less than 30% of TBZ-treated controls were considered as potential inhibitors of MLKL phosphorylation. Conversely, compounds that maintained p-MLKL levels above 70% were selected because they are presumed to prevent the formation of pores in the plasma membrane by interfering with oligomerization.
A clinical chemical library containing 2150 items (Korea Chemical Bank, South Korea), under phase 1–3 clinical trials, including FDA-approved drugs, was used to screen for necroptosis inhibitors. Each chemical was dissolved in DMSO and diluted to 20 μM in DPBS for treatment.
THP-1-HMGB1-Lucia^TM cells were pretreated with the pan-caspase inhibitor Z-VAD-FMK (50 μM, tlrl-vad, InvivoGen) and each chemical for 1 h, and followed by TNF-α (100 ng/mL, TNF0501, NKMAXBio, Seongnam, S. Korea) and Smac mimetic BV6 (10 μM, B1332-5, Biovision, Santa Clara, CA, USA), termed TBZ mixture, were added for necroptosis screening. The RIP1 inhibitor, NEC-1 (1846, Biovision), and MLKL inhibitor, NSA (432531-71-0, Sigma-Aldrich, St. Louis, MO, USA), were used as controls. The cell supernatant was harvested to measure HMGB1 levels using a luciferase assay kit (E1500, Promega, Madison, WI, USA) by a luminometer (Centro XS3 LB 960, Berthold Technologies, Bad Wildbad, Germany). The inhibition of necroptosis (%) was calculated as: (sample-treated data – medium-only data) × 100/(TBZ-treated data – medium-only data). APO [STK088477, (6aS)-6-methyl-5,6,6a,7-tetrahydro-4H-dibenzo[de,g]quinoline-10,11-diol, Vitas-M Laboratory, Hong Kong] was stored at −70 °C after aliquoting with DMSO. APO was used after dilution in DPBS. APO is susceptible to auto-oxidation in solution in the presence of light and air. DPBS containing 5 mM DTT was used for Re-APO. Ox-APO was prepared by incubating APO in DPBS at 25 °C for 24 h in the presence of light and air, followed by removal of any precipitate by filtration through 0.2 μm.

time to saturation of APO oxidation [1]: 24 h
Structure (SMILES): CN1CCc2cccc3c2[C@@H]1Cc1ccc(O)c(O)c1-3 [S62, (6aS)-6-methyl-5,6,6a,7-tetrahydro-4H-dibenzo[de,g]quinoline-10,11-diol]
activity at 20 µM (THP-1-HMGB1-Lucia cells): 7.1%
